Entries after “also recorded” stand apart in the source; their conditions may differ.
Tests used:
human PBMCs = test: LPS-induced IL-6 production from human PBMCs (ELISA); type: cell-based; details: for inhibition of LPS-induced IL-6 production: LPS stimulated human PBMCs, 10 ng/ml LPS, IL-6 at 18 hours
Source text: (§1) Freshly isolated human peripheral blood mononuclear cells (PBMC) and monocytes were obtained from leukopaks (discarded leukocyte from platelet donations). The cells were fractionated on FICOLL-HYPAQUE™ gradients, washed, treated with tris-buffered NH4Cl to eliminate RBCs and washed to obtain PMBCs. Monocytes were obtained by depleting the PBMCs of T cells and NK cells by negative selection asking standard techniques. T cells and NK cells were removed by treatment with anti-CD3 and anti-CD2 monoclonal antibodies followed by goat anti-mouse Ig conjugated magnetic beads at a 10:1 bead:cell ratio. The monocyte preparations were at least 80-85% monocytes, as determined by anti-CD14 staining and forward and slide light scatter analysis using a FACScan (Becton-Dickenson, Elmhurst, Ill.). Less than 2% of the contaminating cells in the monocyte preparation were T cells and no NK cells could be detected. Monocytes were maintained in Ham's F-12 10% FCS, L-Glutamine and penicillin/streptomyocin at 37° C. in 5% CO2.
(§2) Freshly isolated human monocytes, human PBMC and U373-CD14 cells were incubated with 10 ng/ml LPS (E coli 0111:B4, Sigma, St. Louis, Mo.), 100 ng/ml PMA or were untreated in supplemented RPMI [10% FCS; 2 mM L-glutamine and penicillin/streptomycin] with or without various concentrations of mastoparan for 18 hours at 37° C. in 24 well tissue culture dishes. IL-6 and TNF-α levels were determined by ELISA (Endogen Inc., Boston, Mass.) of supernatants harvested at 4 hours (for TNF-α) and at 18 hours (for IL-6) after LPS stimulation.
Freshly isolated PBMCs were treated with LPS and/or peptides (mastoparan or the MAS-17 control peptide) and IL-6 levels were measured in the tissue culture supernatants of the cells (FIG. 2). PBMCs produced IL-6 in response to LPS, while neither mastoparan nor MAS-17 stimulated IL-6 production from the PBMCs.

human monocytes [1] = test: LPS-induced IL-6 and TNF production from freshly isolated human monocytes (ELISA); type: cell-based
Source text: as §1, §2
(§3) In order to determine if the effect of mastoparan on LPS-induced cytokine production was due to a direct effect on monocytes, a highly enriched monocyte population was tested for the effect of LPS and mastoparan on cytokine production from these cells. Freshly isolated human monocytes were treated with mastoparan and LPS, after which IL-6 and TFN cytokine levels were measured in the tissue culture supernatants of the cells (FIG. 3A). […] When mastoparan was used in conjunction with LPS, cytokine production was diminished. […] Mastoparan had little effect on cytokine production from PMA stimulated cells (FIG. 3B), indicating the specificity of mastoparan action, and lack of mastoparan toxicity. Mastoparan had no effect on cell viability as measured by trypan blue uptake even after 36 hours of continuous mastoparan incubation.

human monocytes [2] = test: PMA-induced cytokine production from human monocytes; type: cell-based; details: 100 ng/ml PMA
Procedure: as §2, §3

human monocytes [3] = test: Cell viability by trypan blue uptake; type: cell-based; details: after 36 hours of continuous mastoparan incubation
Procedure: as §3

U373-CD14 cells = test: LPS-induced IL-6 production from U373-CD14 transfectants; type: cell-based
Procedure: U373 cell CD14 transfectants (U373-CD14) were maintained in EMEM supplemented with 10% FCS, L-Glutamine and penicillin/streptomyocin at 37° C. in 5% CO2.
as §2
In addition, the effect of mastoparan on LSP-induced cytokine production from an LPS responsive, CD14 transfected cell line was determined. LPS treatment of U373-CD14 transfectants induced an LPS dose-dependent production of IL-6 (FIG. 4). […] IL-6 production induced by 10 ng/ml LPS was also ablated by treatment of the cells with mastoparan, while at 100 ng/ml of LPS, mastoparan reduced IL-6 levels by approximately one third. At high concentrations of LPS (1 μg/ml) the IL-6 responses of these cells were not inhibited by treatment with the anti-CD14 monoclonal antibody. […] At LPS concentrations of 1 μg/ml, mastoparan was ineffective at reducing cytokine responses from these cells. Thus, CD14-independent LPS signals were not inhibited by mastoparan.

p38 MAP kinase = test: LPS-induced p38 MAP kinase phosphorylation / nuclear translocation (immunoblotting); type: cell-based, human
Procedure: (§4) For detection of p38, phosphorylated p38 and phosphorylated Erk kinases in monocyte lysates, monocytes were subjected to various treatments and lysed in boiling reducing Laemmli sample buffer. The lysates were subjected to electrophoresis through a 10% SDS PAGE gel and were then transferred to nitrocellulose (NC). After washing twice with TBS-Twwen 20(0.1%) the NC was placed in a solution of Ponceau S dye to ensure equal loading and left in blocking buffer [1×TBS; […]; 5% milk] for 1 hour. After blocking and washing, the NC was incubated with anti-p38 N+C terminus (Santa Cruz Biotechnology Inc., Santa Cruz, Calif.) for 2-3 hours or with anti-phosphorylated p38 and Erk antibodies (New England Biolabs, Inc., Beverly, Mass.) for 18 hours. Membranes were washed three times in TBS-Tween 20 and were incubated for 30 minutes with horseradish peroxidase conjugated donkey-α-rabbit antibody in blocking buffer (Amersham Corp., Arlington Heights, Ill.). Membranes were washed an additional six times [3×TBS-Tween-20; 3×TBS], and were developed by exposure to ECL chemicals (Amersham corp., Arlington Heights, Ill.) and visualized by exposure to film.
For detection of p38 in nuclear extracts, cells after a variety of treatments were subject to lysis and nuclear extraction as described in Lerder et al., J. Immunol. 152:77-86 (1994). The nuclear extracts were subjected to protein quantitation by Micro BCA assay (Pierce, Rockford, Ill.) using a BSA standard. The details of the blotting procedure were the same as above except that […] of extract was used.
Because mastoparan had profound effects on cytokine production and p38 MAP kinase is involved,in LPS induced-signaling, the effect of mastoparan on MAP kinase activation was evaluated. For full activation, p38 MAP kinase requires phosphorylation on both threonine and tyrosine residues (Raingeaud et al., J. Biol. Chem., 270: 7420-7426, 1995). Detection of dual-phosphorylated p38 MAP kinase by monoclonal antibodies specific for the dual-phosphorylated form of p38 was used as a measure of p38 activation. […]

Erk kinases = test: Erk 1 and 2 MAP kinase activation in human monocytes (immunoblotting); type: cell-based
Procedure: as §4
The lack of substantial LPS-induced Erk kinase phosphorylation in freshly isolated monocytes is consistent with results obtained with other non-transformed human cells (Nick et al., J. Immunol., 156: 4867-4875, 1996). […]

[4] = tested on: LPS-induced lethal endotoxic shock; test: LPS-induced lethal endotoxic shock in rats; type: in vivo, Wistar rats
Procedure: Wistar rats (200 g) were obtained from Charles River Laboratories. Rats were treated with 3 mg/kg mastoparan by intravenous injection in the tail vein, immediately followed by 15 mg/kg lead acetate and 5 μg/kg LPS 0111:B4 intravenously. Mortality was assessed up to 96 hours following LPS treatment. Mortality frequency was compared by Fisher exact test and statistical analysis was performed using Yates corrected Chi square test.
To determine the effect of mastoparan in vivo, the effect of mastoparan on LPS-induced lethal endotoxic shock in rats was assessed.

[5] = LPS-stimulated, various concentrations of mastoparan (FIG. 3A)
[6] = 3 mg/kg mastoparan i.v. + lead acetate + 5 μg/kg LPS, dead/total

## mastoparan
Human PBMCs
  inhibition of LPS-induced IL-6 production: potent inhibitor
Human PBMCs; listed as mastoparan
  inhibition of LPS-induced IL-6 production: inhibits; also recorded: dose-dependent
Human PBMCs; human PBMCs, 13.3 μM mastoparan
  LPS-induced IL-6 production: totally ablated
Human PBMCs; human PBMCs, peptide without LPS
  IL-6 production stimulated by peptide alone: neither
Human monocytes [1]; [5]
  inhibition of IL-6 production in human monocytes: dose-dependent inhibition
  inhibition of TNF-α production in human monocytes: dose-dependent inhibition
Human monocytes [1]; human monocytes, 13.34 μM mastoparan
  LPS-induced cytokine production: totally ablated
Human monocytes [1]; human monocytes, without LPS
  IL-6 production induced by mastoparan alone: induced neither
  TNF production induced by mastoparan alone: induced neither
Human monocytes [1]; mastoparan as low as 1.67 μM
  reduction of IL-6 production in monocytes stimulated with LPS: dramatic reductions
  reduction of TNF production in monocytes stimulated with LPS: dramatic reductions
Human monocytes [1]; mastoparan in conjunction with LPS, concentration not given
  LPS-induced cytokine production from human monocytes: inhibition; also recorded: diminished
Human monocytes [2]
  cytokine production from PMA stimulated cells: little effect
Human monocytes [3]
  cell viability as measured by trypan blue uptake: no effect
U373-CD14 cells; U373-CD14 cells, 10 ng/ml LPS
  IL-6 production induced by LPS: ablated
U373-CD14 cells; U373-CD14 cells, 100 ng/ml LPS
  reduction of IL-6 levels: approximately one third
U373-CD14 cells; U373-CD14 cells, 1 μg/ml LPS
  IL-6 / cytokine responses at high LPS (CD14-independent): ineffective
U373-CD14 cells; U373-CD14 transfected cells (FIG. 4)
  CD14-dependent LPS induced signal transduction: inhibits
p38 MAP kinase; FIG. 5B
  LPS-induced p38 MAP kinase activity: reduces
p38 MAP kinase; monocytes and PBMC
  LPS-induced phosphorylation of p38 MAP kinase: inhibition; also recorded: reduced
p38 MAP kinase; nuclear extracts
  LPS-induced nuclear translocation of p38: inhibited
Erk kinases
  Erk kinase activation induced by LPS: specific inhibition; also recorded: completely inhibited
  Erk kinase activation induced by PMA: minimal effects
[4]; 3 mg/kg mastoparan i.v. + lead acetate + 5 μg/kg LPS
  Mortality Total (%): 44.4%
[4]; [6]
  Mortality 14 hours: 7/18
  Mortality 24 hours: 8/18
[4]; 3 mg/kg mastoparan i.v., 15 mg/kg lead acetate and 5 μg/kg LPS i.v., p<0.05 at 14 and 24 hours
  protection from LPS induced mortality: significantly protect
[4]; experiment continued for 96 hours
  mortality at 96 hours relative to the 24 hour point: unchanged
[4]; mastoparan alone, data not shown
  toxic effects when used alone in the model system: did not have any toxic effects
